Laboratory results reported in patent US5336485A, “Method for protecting animals against tacrine induced cytotoxic injury using sterol compounds” (priority 1993, dated 1994).

Key:
[1] = tested on: L1210 leukemia cells; conditions: mouse, in vivo
[2] = tested on: gluconeogenesis or ATP production; conditions: cited from earlier work
[3] = tested on: male Sprague-Dawley rats; test: CCl4 induced lethality in rats; format: in vivo, rat
[4] = tested on: rat hepatocytes; test: EMS-induced cytotoxicity (LDH leakage/cell death) in rat hepatocyte suspensions; conditions: Rattus norvegicus, Hepatocyte, 5 h, read-out: Percent Cytoprotection, 25 μM, 50 mM EMS, 5 h
[5] = tested on: isolated rat liver mitochondria; conditions: 6 mM succinate; cited from earlier work
[6] = tested on: rat hepatocytes; test: ATP content of rat hepatocyte suspensions; format: cell-based; conditions: 25 μM
Description: It is well known that the succinate molecule is utilized by the cell to produce ATP energy. In the tricarboxylic acid cycle, succinate is oxidized by succinate dehydrogenase to produce ATP. Oxidation occurs in the mitochondria and the mitochondria can utilize both succinate formed in the mitochondria or succinate transported to the mitochondria. Increasing ATP production may enhance cellular repair processes as well as normal metabolic processes. For example, the cell's ability to remove free intracellular Ca^2+ during a toxic insult is related to ATP production. Succinate administration stimulates gluconeogenesis to form glucose 6-phosphate which is used for producing energy anaerobically (ATP formation through glycolysis) and for producing reducing equivalents (NADPH formation through the hexose monophosphate shunt needed for lipid and nucleotide biosynthesis and other biosynthetic reductions and enzymatic reactions, e.g., glutathione reductase). An in vitro experiment was conducted to determine the relationship between the release of succinate from alpha-TS and the cellular ATP level. The experiment was performed by incubating a tocopherol analog in a rat hepatocyte suspension and measuring the ATP level at the beginning and end of the test.
Rat hepatocyte suspensions were subjected to 50 mM EMS and the percentage of cell death, the percentage of intracellular K^+ (a metabolic parameter as discussed above), the depletion of ATP and the effect on lipid peroxidation were monitored.

[7] = tested on: rat; conditions: in vivo, ip, 100 mg/kg
Description: The duration of pentobarbitone-induced sleeping time is directly dependent on the metabolism of pentobarbitone in the liver.
^a Rats are pretreated, with the compounds listed, 20 hours prior to

Structure (SMILES) | Survival time (footnote) [1] | concentration required to stimulate gluconeogenesis or ATP production [2] | Survival after CCl4 treatment ([3]; 100 mg/kg ip 24 h prior, […] CCl4 oral) | Days Survived After CCl4 Treatment ([3]; 100 mg/kg, single dose 24 h prior, CCl4 […]) | cytoprotection (Table 7, in words) ([3]; rat, in vivo) | inhibition at 25 µM [4] | increase of Ca2+ capacity and Ca2+ retention of mitochondria [5] | Rate of ATP Depletion [6] | Cellular ATP ([6]; 0 Hr) | Cellular ATP ([6]; 6 Hr) | Sleeping Time [7]
O=C(O)CCC(=O)O [Succinic Acid, reference compound] | identical for succinate and vehicle treated | Millimolar concentrations | No | 2 days | not cytoprotective | 0% | five to seven | 1.8 ± 0.2 nmoles/10^6 cell/hr | 15.7 ± 1.3 nmoles/10^6 cells | 4.9 ± 0.6 nmoles/10^6 cells | –
CC(C)(C(=O)c1cccnc1)c1cccnc1 [Metyrapone] | – | – | – | – | – | – | – | – | – | – | 900 ± 120 min
